Experimental data: PubChem BioAssay (NCI)
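Following 48 hours of exposure in 96-well plates, responses at five concentrations were used to interpolate endpoints linearly. At the GI50, growth is halved. TGI marks complete inhibition of growth.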

Key:
Test in all cases: NCI-60 cell line screen, 48 h
MCF7 breast = tested on: MCF7 breast
NCI-H522 lung = tested on: NCI-H522 lung
A498 renal = tested on: A498 renal
M14 melanoma = tested on: M14 melanoma
RPMI-8226 leukemia = tested on: RPMI-8226 leukemia
SF-295 CNS = tested on: SF-295 CNS
HOP-62 NSCLC = tested on: HOP-62 NSCLC
LOX IMVI melanoma = tested on: LOX IMVI melanoma
CCRF-CEM leukemia = tested on: CCRF-CEM leukemia
DU-145 prostate = tested on: DU-145 prostate

SMILES | GI50 (MCF7 breast) [µM] | TGI (MCF7 breast) [µM] | GI50 (NCI-H522 lung) [µM] | TGI (NCI-H522 lung) [µM] | GI50 (A498 renal) [µM] | TGI (A498 renal) [µM] | GI50 (M14 melanoma) [µM] | TGI (M14 melanoma) [µM] | GI50 (RPMI-8226 leukemia) [µM] | TGI (RPMI-8226 leukemia) [µM] | GI50 (SF-295 CNS) [µM] | TGI (SF-295 CNS) [µM] | GI50 (HOP-62 NSCLC) [µM] | TGI (HOP-62 NSCLC) [µM] | GI50 (LOX IMVI melanoma) [µM] | TGI (LOX IMVI melanoma) [µM] | GI50 (CCRF-CEM leukemia) [µM] | TGI (CCRF-CEM leukemia) [µM] | GI50 (DU-145 prostate) [µM] | TGI (DU-145 prostate) [µM]
Cc1cc2nc3c4cccc(O)c4n(CCN(C)C)c3nc2cc1C | 1.36 | 5.08 | 2.15 | 6.49 | 2.09 | 9.08 | 1.63 | 3.43 | 1.36 | 4.62 | 3.58 | 14 | 1.88 | 7.53 | 1.24 | 2.6 | 1.57 | 6.25 | 2.96 | 8.79
Cc1ccc(Oc2nc3ccccc3cc2-c2nnc(Cn3c(COc4ccccc4)nc4ccccc43)o2)cc1 | 0.949 | 5.38 | 6.34 | 21.1 | 0.409 | 18.7 | 2.33 | 7.4 | 2.39 | 8.45 | 3.48 | 14.1 | 2.98 | 13 | 1.59 | 4.32 | 0.414 | 3.74 | 5.46 | 45.7
COc1cc2c(cc1OC)-c1c(c3ccc([N+](=O)[O-])cc3c(=O)n1CCCN)C2=O | 0.0545 | 7.09 | 0.0615 | 4.22 | 6.27 | 13.2 | 0.00971 | 1.57 | 0.812 | 3.52 | 0.0566 | 10.5 | 1.28 | 8.24 | 0.325 | 1.17 | 0.495 | 2.4 | 0.684 | 1.37
CCN1CCC(CC(=O)Nc2n[nH]c3nc(-c4cccs4)c(Br)cc23)CC1 | 6.29 | 18.5 | 6.74 | > 16.8 | 7.87 | > 25 | 6.88 | 14.6 | 9.42 | 24.8 | 10.7 | > 25 | 10.6 | > 25 | 5.11 | 14.1 | 9.57 | > 25 | 8.5 | > 25
CN1CCC(n2[nH]c(-c3ccccc3)c(Cc3ccccc3)c2=O)CC1 |  | > 100 |  | > 100 |  | > 100 |  | > 100 |  | > 100 |  | > 100 |  | > 100 |  | > 100 |  | > 100 |  | > 100
CN(C)S(=O)(=O)c1ccc(Nc2ccc(O)c3c2C(=O)c2c([N+](=O)[O-])ccc(O)c2C3=O)cc1 |  | > 100 |  | > 100 |  | > 100 |  | > 100 |  | > 100 |  | > 100 |  | > 100 |  | > 100 |  | 44.9 |  | > 100
COC(=O)[C@]12CC=C3O[C@@H]4OC5(CCCCC5)O[C@@H]4[C@H]3C1C(=O)C=CC2=O (stereo partly drawn) |  | 35.5 |  | 15.4 |  | 33.6 |  | 32 |  | 21.6 |  | 42.2 |  | 37.9 |  | 35.2 |  | 14.3 |  | 47.2
CN1C(=O)C(c2c[nH]c3ccccc23)=C(c2c(-c3c[nH]c4ccccc34)[nH]c3ccccc23)C1=O | 2.27 | 6.26 | 12.3 | > 100 | 1.89 | 8.12 | 1.76 | 4.79 | 3.54 | 17.5 | 1.93 | 4.27 | 2.1 | 11.9 | 4.67 | 17 | 3.19 | 12.4 | 3 | 12.2
CCOC(=O)/C(=C\c1ccc(F)cc1)C(C)=O |  | 96.6 |  | 29.5 |  | 34.9 |  | 60.9 |  | 53 |  | 79.3 |  | > 100 |  | 36.7 |  | > 100 |  | 56.8
COc1ccc(/C=C\c2cc(OC)c(OC)c(OC)c2)cc1OCC(=O)Nc1nc2ccc(OC(F)(F)F)cc2s1 | 2.89 | > 100 | 3.16 | 21.7 | 3.61 | > 100 | 4.36 | > 100 | 5.83 | > 100 | 3.7 | > 100 | 7.09 | > 100 | 4.77 | > 100 | 4.12 | > 100 | 4.11 | > 100
N/C(=N\c1nc2ccccc2s1)NC(=O)Nc1cccc2ccccc12 | 0.209 | > 100 | 0.0775 |  | 0.347 | 3.72 | 0.23 | > 100 | 0.418 | > 100 | 0.173 | 1.83 | 0.406 |  | 0.825 | > 100 | 0.36 | > 100 | 0.356 | 4.2
CNCCOC(=O)/C=C1/CCC2C(C(O)CC3C(C)(C(=O)OC)CCCC23C)C1C (stereo not drawn) | 0.0213 | 0.071 | < 0.01 | 0.0203 | 0.0161 | 0.0585 | 0.0202 | 0.0424 | 0.0248 | 0.0657 | 0.0209 | 0.0452 | 0.013 | 0.0259 | 0.0192 | 0.042 | 0.0138 | 0.0518 | 0.016 | 0.0305
COc1ccc(-n2c(C)nc3c(c(C)nn3-c3ccccc3)c2=O)cc1 | 0.036 | > 100 | 0.0375 | 9.1 | 0.0264 | 0.0843 | 0.0491 | > 100 | 0.108 | > 33.6 | 0.0594 | > 100 | 0.0789 | > 100 | 0.065 | > 100 | 0.057 | > 100 | 0.29 | > 100
